Assay results reported in US10647671B2, “Promysalin analogues and methods of use thereof” (Temple University—Of The Commonwealth System of Higher …, priority 2016, dated 2020).
Like-named read-outs stand apart in the source and are kept apart here.

Experiments:
[1] = tested on: P. aeruginosa (PA14, PA01); assay: Zone of inhibition / growth in defined media; format: cell-based, Pseudomonas aeruginosa
Method: (§1) Bacterial strains (PA14, PAO1, KT2440, and RW10S1) were grown at 37° C. in TSB medium or on agar plates.
(§2) 100 μL overnight culture was added to TSB or M9 agar plates and bacterial lawns were ‘created’ using Roll & Grow Plating Beads. Compound stock solution 20 μL of a 250 μM solution, 10 μL of a 10 mg/mL gentamicin solution, and 20 μL of a 250 μM DMSO control (stock=10% DMSO/H2O) was absorbed into discs and allowed to dry. Discs were placed on the plates and incubated at 37° C. for 24 hours. Assay was run in triplicate from separate overnight cultures.

CAS assay (CAS agar) = format: physicochemical; settings: at concentrations ranging from 6-100 μM; reduced affinity compared to EDTA
Method: CAS agar was prepared as described previously (Cordero, et al., PNAS, 2012, 109, 49, 29059). 10 μL of solution at given concentration were dosed onto plates and imaged after 24 hours. Stock solutions were made in 10% DMSO/H2O.

[2] = tested on: P. aeruginosa strains PAO1 and PA14; settings: cited from earlier work
[3] = Kaduskar et al., 2016; cited from earlier work
Gram-positive bacteria = settings: Li et al., 2011; cited from earlier work
[4] = tested on: P. putida (PP KT2440, PP RW10S); assay: Zone of inhibition / growth in defined media; format: cell-based, Pseudomonas putida
Method: as §1, §2

P. aeruginosa PA01 = assay: IC50 assay (OD595, 24 h) against PA01; format: cell-based; settings: Pseudomonas aeruginosa
Method: (§3) P. aeruginosa PA01, and PA14 were gifts from Prof. George O'Toole (Dartmouth Medical School). Bacterial cultures were grown from freezer stocks overnight (16-24 hr) with shaking at 37° C. in Tryptic Soy Broth (TSB) media (10 mL). Growth curves were obtained for PA01 and PA14 to determine the OD of each strain in exponential growth; OD readings at 595 nm were taken every 10 minutes for 6 hours in a plate reader at 37° C. with shaking and repeated six times. (see FIGS. 6A and 6B) Compounds were serially diluted in sterile DI water from a stock solution (1 mM in 10% DMSO/90% H2O) to yield twenty-four test concentrations. Overnight cultures were diluted 1:100 in 5 mL fresh media and grown with shaking at 37° C. to an OD of 0.32 (see growth curves). Bacteria were diluted to a concentration of 0.004 using the following equation: (x μL O/N)(OD reading)=(0.004)(volume needed) and 100 μL was inoculated into each well of a flat-bottom 96-well plate (Corning 3370) containing 100 μL of compound solution. Plates were incubated statically at 37° C. for 24 hours, upon which time the OD at 595 nm was measured using a plate reader. IC50 values were calculated by fitting the OD readings vs. concentration with a 4 parameter logistic model. Controls were prepared by serially diluting a 10% DMSO/90% H2O the same as the compound stock solution. Compounds were tested in triplicate from separate O/N cultures and results averaged.

PaPiuA = assay: Isothermal microcalorimetry titration; format: binding, Pseudomonas aeruginosa; settings: 25° C.
Method: Titrations were performed using 5 μl injections of 164 μM (using ε280=6 714 1 mol-1 cm-1 Li et al. Chemistry and Biology 2011) of the ligand in 17 μM of purified PaPiuA (Moynie et al. Antimicrobial Agents and Chemotherapy 2017) in the same buffer (50 mM sodium phosphate pH 7.5, 50 mM NaCl, 0.8% OctylPOE). The heats of dilution measured from injection of the ligands into the buffer were subtracted from the experimental data and titration curves were fitted to a single site binding using Origin software.

[5] = tested on: pyoverdine production in P. putida KT2440; settings: cited from earlier work
P. aeruginosa PA14 = assay: IC50 assay (OD595, 24 h) against PA14; format: cell-based, Pseudomonas aeruginosa; settings: Pseudomonas aeruginosa
Method: (§4) P. aeruginosa PA01, and PA14 were gifts from Prof. George O'Toole (Dartmouth Medical School). Bacterial cultures were grown from freezer stocks overnight (16-24 hr) with shaking at 37° C. in Tryptic Soy Broth (TSB) media (10 mL). Growth curves were obtained for PA01 and PA14 to determine the OD of each strain in exponential growth; OD readings at 595 nm were taken every 10 minutes for 6 hours in a plate reader at 37° C. with shaking and repeated six times. (see FIGS. 6A and 6B)
as §3, with “Compounds” for “P. aeruginosa PA01, and PA14 were gifts from Prof. George O'Toole (Dartmouth Medical School). Bacterial cultures were grown from freezer stocks overnight (16-24 hr) with shaking at 37° C. in Tryptic Soy Broth (TSB) media (10 mL). Growth curves were obtained for PA01 and PA14 to determine the OD of each strain in exponential growth; OD readings at 595 nm were taken every 10 minutes for 6 hours in a plate reader at 37° C. with shaking and repeated six times. (see FIGS. 6A and 6B) Compounds”
Compounds were serially diluted in sterile DI water from a stock solution (10% DMSO/H2O) yielding 24 test concentrations. Bacteria were diluted to a final concentration of 0.004 from regrown overnight culture according to the following equation: (xμL bacterial culture)(OD reading)=(0.004)(total volume needed) and 100 μL was inoculated into each well of a flat-bottom 96-well plate (Corning 3370) containing 100 μL of compound solution. Plates were incubated statically at 37° C. for 24 hours upon which time OD at 595 nm was measured using a plate reader (Spectra Max 190). IC50 values were calculated using OD values and concentrations with a 4-parameter logistic model. Control experiments used a 10% DMSO/H2O stock serially diluted to the same 24 concentrations. Compounds were tested in triplicate from three independent overnight cultures.

[6] = tested on: P. aeruginosa strains PAO1 and PA14; assay: Inhibitory activity against P. aeruginosa, strain not separated in text; format: cell-based, Pseudomonas aeruginosa; settings: compared with promysalin
Method: as §4
as §3, with “Compounds” for “P. aeruginosa PA01, and PA14 were gifts from Prof. George O'Toole (Dartmouth Medical School). Bacterial cultures were grown from freezer stocks overnight (16-24 hr) with shaking at 37° C. in Tryptic Soy Broth (TSB) media (10 mL). Growth curves were obtained for PA01 and PA14 to determine the OD of each strain in exponential growth; OD readings at 595 nm were taken every 10 minutes for 6 hours in a plate reader at 37° C. with shaking and repeated six times. (see FIGS. 6A and 6B) Compounds”
With a library of sixteen analogs in hand, all of the compounds were evaluated for inhibitory activity against P. aeruginosa strains PAO1 and PA14. […] The inhibition data supported our initial hypothesis that the conformation of promysalin is exquisitely linked to its inhibition of PA. Of our modifications to the proline structure, fluorination (9)—being the smallest steric perturbation, was the only compound with equipotency to that of promysalin.

[7] = average of EXPT 1-3, read-out: IC50 PA01 AVG
[8] = averages of three independent experiments, read-out: IC50 PA01
[9] = single trial 1, read-out: IC50 PA01 EXPT 1
[10] = single trial 2, read-out: IC50 PA01 EXPT 2
[11] = single trial 3, read-out: IC50 PA01 EXPT 3
[12] = average of EXPT 1-3, read-out: IC50 PA14 AVG
[13] = averages of three independent experiments, read-out: IC50 PA14
[14] = single trial 1, read-out: IC50 PA14 EXPT 1
[15] = single trial 2, read-out: IC50 PA14 EXPT 2
[16] = single trial 3, read-out: IC50 PA14 EXPT 3

| SMILES | IC50 (P. aeruginosa PA01; [7]) [µM] | IC50 (P. aeruginosa PA01; [8]) [µM] | IC50 (P. aeruginosa PA01; [9]) [µM] | IC50 (P. aeruginosa PA01; [10]) [µM] | IC50 (P. aeruginosa PA01; [11]) [µM] | IC50 (P. aeruginosa PA14; [12]) [µM] | IC50 (P. aeruginosa PA14; [13]) [µM] | IC50 (P. aeruginosa PA14; [14]) [µM] | IC50 (P. aeruginosa PA14; [15]) [µM] | IC50 (P. aeruginosa PA14; [16]) [µM] | inhibitory activity against P. aeruginosa, in words (SAR) [6] | also measured |
| --- | --- | --- | --- | --- | --- | --- | --- | --- | --- | --- | --- | --- |
| CCCCCC[C@H](CCCCC[C@@H](O)C(N)=O)OC(=O)[C@@H]1CC=CN1C(=O)c1ccccc1O [1 (2R,8R), promysalin] | 4.12 | 4.1 | 4.44 | 4.37 | 3.54 | 0.067 | 0.067 | 0.1 | 0.02 | 0.08 | – | activity in TSB and glucose+Fe media [1]: active; Fe^3+ chelation on CAS agar (CAS assay (CAS agar)): positive; activity against PA (literature) [2]: nM concentrations; stability under mildly acidic conditions [3]: instability; susceptibility of Gram-positive bacteria (Gram-positive bacteria): no susceptibility; zone of inhibition ([4]; M9, succinate as sole carbon source, iron-limiting, both PP strains including producing organism): clear zone of inhibition; activity in TSB and glucose+Fe media ([4]; P. putida): not P. putida; binding to PiuA (isothermal microcalorimetry) (PaPiuA): no appreciable interaction; production of pyoverdine in P. putida KT2440 [5]: inhibits; IC50 (P. aeruginosa PA14; preliminary screening for probe design, read-out: IC50 in PA14): 0.063 µM |
| CCCCCC[C@H](C/C=C/CC[C@@H](O)C(N)=O)OC(=O)[C@@H]1CC=CN1C(=O)c1ccccc1O [compound 21, (7R,13R,E)-14-amino-13-hydroxy-14-oxotetradec-9-en-7-yl (S)-1-(2-hydroxybenzoyl)-2,3-dihydro-1H-pyrrole-2-carboxylate] | 8.34 | 8.3 | 10.1 | 8.07 | 6.81 | 0.067 | 0.067 | 0.12 | 0.05 | 0.03 | equipotent | – |

Second part, led by results:

| IC50 (P. aeruginosa PA01; [7]) [µM] | IC50 (P. aeruginosa PA01; [8]) [µM] | IC50 (P. aeruginosa PA01; [9]) [µM] | IC50 (P. aeruginosa PA01; [10]) [µM] | IC50 (P. aeruginosa PA01; [11]) [µM] | IC50 (P. aeruginosa PA14; [12]) [µM] | IC50 (P. aeruginosa PA14; [13]) [µM] | IC50 (P. aeruginosa PA14; [14]) [µM] | IC50 (P. aeruginosa PA14; [15]) [µM] | IC50 (P. aeruginosa PA14; [16]) [µM] | SMILES | inhibitory activity against P. aeruginosa, in words (SAR) [6] | also measured |
| --- | --- | --- | --- | --- | --- | --- | --- | --- | --- | --- | --- | --- |
| 56.7 | 57 | 59.3 | 55.4 | 55.5 | 6.74 | 6.7 | 6.98 | 5.86 | 7.39 | CCCCCC[C@H](CCCCC[C@@H](O)C(N)=O)OC(=O)[C@@H]1CC=CN1C(=O)c1ccccc1OC [compound 11, (1R,7R)-1-carbamoyl-1-hydroxytridecan-7-yl (2S)-1-(2-methoxybenzoyl)-2,3-dihydro-1H-pyrrole-2-carboxylate] | an order of magnitude less potency | – |
| 5.85 | 5.8 | 4.78 | 5.64 | 7.12 | 0.035 | 0.035 | 0.02 | 0.09 | – | CCCCCC[C@H](CCCCCCC(N)=O)OC(=O)[C@@H]1CC=CN1C(=O)c1ccccc1O [compound 18, (R)-14-amino-14-oxotetradecan-7-yl (S)-1-(2-hydroxybenzoyl)-2,3-dihydro-1H-pyrrole-2-carboxylate] | fully retained | – |
| 38.3 | 38 | 29.2 | 49.3 | 47.6 | 11.2 | 11 | 12.8 | 5.72 | 15 | CCCCCC[C@H](CCCCC[C@@H](OC)C(N)=O)OC(=O)[C@@H]1CC=CN1C(=O)c1ccccc1O [compound 19, (7R,13R)-14-amino-13-methoxy-14-oxotetradecan-7-yl (S)-1-(2-hydroxybenzoyl)-2,3-dihydro-1H-pyrrole-2-carboxylate] | decrease in potency | – |
